# Test results: patent US4076705A, “Dipeptide derivatives and their production” (Shionogi & Co., Ltd., priority 1974, dated 1978)
# Tests used:
# Type in all cases: in vivo
# DS male mice [1] = experiment: Anti-pentylenetetrazol activity; details: for Anti-pentylenetetrazol activity, ED50: oral, 60 minutes prior to 125 mg/kg s.c. pentylenetetrazol, complete protection against mortality, observed two hours; for times more potent than diazepam, anti-pentylenetetrazol activity: versus diazepam (Compound No. 5)
# Text: 1. Anti-pentylenetetrazol activity
# The convulsions were disregarded.
# DS male mice [2] = experiment: Taming activity; details: for Taming activity ED50: given 60 minutes prior, inhibition of fighting responses to 5 Hz square wave pulse, 5 pairs; for times more potent than diazepam, taming activity: versus diazepam (Compound No. 5)
# Protocol: This test was measured on DS male mice. […] These pairs of mice were selected in the morning and used for drug test in the afternoon. The test compound was administered to both mice of the pairs 60 minutes prior to the experiment. Results were obtained as the mean percentage of inhibition of fighting responses in a group of 5 pairs and shown by ED50 [Tedeschi, et al.: J. Pharmacol Exp. Thev., 125, 28-34 (1959) ].
# DS male mice [3] = experiment: Rotarod performance activity; details: fall from rod (five rotations per minute) within less than 2 minutes
# Protocol: 3. Rotarod performance activity
# This test was measured on DS male mice. The mouse was put on a scraped rod of wood, 3 cm in diameter, turning at the rate of five rotations per minute. The mice that could remain on the rod for three or more minutes in successive trials were selected and placed in a group of 10 mice for each dose. If the mouse fell down from the rod within less than 2 minutes, the test compound was considered to be effective. Results were shown by ED50 [Dunham, et al.: J. Am. Pharm. Assoc., 46, 208 (1959)].
# [4] = versus chlordiazepoxide (Compound No. 4)
SMILES,"Anti-pentylenetetrazol activity, ED50 (DS male mice [1])","times more potent than chlordiazepoxide, anti-pentylenetetrazol activity (DS male mice [1]; [4])","times more potent than chlordiazepoxide, taming activity (DS male mice [2]; [4])","times more potent than diazepam, anti-pentylenetetrazol activity (DS male mice [1])",Taming activity ED50 (DS male mice [2]),"times more potent than diazepam, taming activity (DS male mice [2])",Rotarod performance ED50 (DS male mice [3])
"CN(C(=O)CNC(=O)CN)c1ccc(Cl)cc1C(=O)c1ccccc1 [Compound No. 1, 2-benzoyl-4-chloro-N-methyl-N^α -glycyl-glycinanilide]",1.0 mg/kg,2 to 3 times,2 to 3 times,–,–,–,–
"CN(C(=O)CNC(=O)CN)c1ccc(Cl)cc1C(=O)c1ccccc1Cl.O [Compound No. 2, 2-o-chlorobenzoyl-4-chloro-N-methyl-N^α -glycyl-glycinanilide hydrate]",0.58 mg/kg,–,–,2 to 4 times,3.0 mg/kg,2 to 4 times,–
"CN(C(=O)CNC(=O)CN)c1ccc(Cl)cc1C(=O)c1ccccc1F.Cl [Compound No. 3, 2-o-fluorobenzoyl-4-chloro-N-methyl-N^α -glycyl-glycinanilide hydrochloride]",0.33 mg/kg,–,–,2 to 4 times,1.6 mg/kg,2 to 4 times,17.0 mg/kg
"CNC1=Nc2ccc(Cl)cc2C(c2ccccc2)=[N+]([O-])C1 [Compound No. 4, Chlordiazepoxide, reference compound]",–,–,–,–,–,–,50.0 mg/kg
